Results taken from US11993582B2, “Crystalline forms of a LTA4H inhibitor” (Novartis AG, priority 2018, dated 2024).
≈ marks a conversion by molar mass, not a printed value.

How the values were obtained:
Type in all cases: physicochemical
[1] = Physical stability: behavior under compression (XRPD); conditions: 5 minutes at 10 tons, hydraulic press, 13 mm tablets
Method: Behavior under compression: The physical stability of crystalline Form HB was also evaluated. 300 mf of the crystalline form HB was compressed for 5 minutes at 10 tons with a hydraulic press (diameter of the tablets 13 mm). The sample was then characterized by XRPD to detect any change in the solid state.

[2] = Solubility in aqueous buffers and bio-relevant media
[3] = Hygroscopicity by DVS
Text: Crystalline form HB is a hydrated form of (S)-3-amino-4-(5-(4-((5-chloro-3-fluoropyridin-2-yl)oxy)phenyl)-2H-tetrazol-2-yl)butanoic acid.

[4] = Physical stability: behavior under grinding (XRPD); conditions: ground manually in a mortar for 3 minutes
Method: Behavior under grinding: The physical stability of crystalline form Form HB was also evaluated. 50 mg of the crystalline form B or HB were ground manually in a mortar for 3 minutes.

[5] = Stability in solvent: equilibration of Form HB with solvent, residue analysed by XRPD
[6] = as above; remark: listed apart in the source
Method: Equilibrations with solvent were carried out to investigate the relative stability of form HB in solvent. 50 mg of Form HB is equilibrated with 1 mL solvent for 24 h (or 7 days, or 28 days) in a water bath at 25° C. or for 7 days at 50° C. The solutions are filtered and dried for 10 minutes in air. The resulting solid is analyzed by XRPD.
Various solvent were investigated: acetone, acetonitrile, dichloromethane, dioxane, ethanol, heptane, methanol, THF, acetone/water mixtures from 10/90 to 90/10, acetonitrile/water mixtures from 10/90 to 90/10, dioxane/water mixtures from 10/90 to 90/10 and ethanol/water mixture from 10/90 to 90/10, tetrahydrofuran/water (50/50) and 1-propanol/water (70/30).

[7] = Physical stability: granulation simulation experiment (XRPD and/or DSC); conditions: ethanol or water as granulation solvent, 25° C.
Method: Behavior under granulation simulation experiment: The physical stability of crystalline forms HB was also evaluated in granulation simulation experiments. In these experiments granulating solvent was added dropwise to the crystalline form HB until the solid is wetted sufficiently. The mixture was then vortexed between each addition at 25° C. The mixture was then dried under vacuum. The crystallinity of the material (post-grinding) was re-evaluated by XRPD and/or DSC. The granulating solvent was water or ethanol.

[8] = Solid state stability in bulk (HPLC degradation products, XRPD); conditions: test conditions 1-5: 1 week, tight or open container, room temperature to 80° C., up to 92% RH; listed as Modification HB
Method: The chemical and physical stability of form B and form HB was investigated, exposing the individual forms to high humidity at temperatures ranging from 25-80° C.
The degradation products were analyzed by HPLC and the sample was analyzed by XPRD to detect any changes to the solid state.

N[C@@H](CC(=O)O)Cn1nnc(-c2ccc(Oc3ncc(Cl)cc3F)cc2)n1 [Form HB, (S)-3-amino-4-(5-(4-((5-chloro-3-fluoropyridin-2-yl)oxy)phenyl)-2H-tetrazol-2-yl)butanoic acid]
Change of crystalline form by XRPD under compression [1]: No change of crystalline form
solubility ([2]; FaSSIF (pH=6.5)): 90 µg/mL (≈ 229 µM)
solubility ([2]; FeSSIF (pH=5.8)): 9 µg/mL (≈ 22.9 µM)
solubility ([2]; simulated gastric fluid (SGF of pH=2)): 750 µg/mL (≈ 1910 µM)
Rehydration ([3]; at 10% RH and above 60% RH): Stepwise rehydration to HB
Behaviour at low humidity ([3]; below 10% RH): loses their water
Hygroscopicity ([3]; between 10-90% RH): not hygroscopic
Change by XRPD under grinding [4]: did not result in any change
Form conversion through slurry ([5]; high temperature slurry at 80° C. in aqueous solvent mixtures): Modification B can be obtained
Form conversion through slurry ([5]; hot or boiling methanol, about 50° C. to about 65° C.): transforms into anhydrous Modification B
Solid form after equilibration with solvent ([6]; 25° C., 7 days or 28 days, a variety of solvent): no change
Solid form after equilibration with solvent ([6]; 25° C., 7 days or 28 days, acetone, dioxane, ethanol, methanol and THF): converts to amorphous material or gel like material
Solid state residue ([6]; 50° C., 7 days, 1,4-Dioxane): Amorphous
Solid state residue ([6]; 50° C., 7 days, 1-Butanol): Amorphous
Solid state residue ([6]; 50° C., 7 days, Acetone): Amorphous
Solid state residue ([6]; 50° C., 7 days, Acetone/water 50/50): Form HB
Solid state residue ([6]; 50° C., 7 days, Acetone/water 90/10): Form HB
Solid state residue ([6]; 50° C., 7 days, Acetonitrile): Amorphous
Solid state residue ([6]; 50° C., 7 days, Anisole): Amorphous
Solid state residue ([6]; 50° C., 7 days, DMSO): Amorphous
Solid state residue ([6]; 50° C., 7 days, DMSO/methanol 50/50): Amorphous
Solid state residue ([6]; 50° C., 7 days, DMSO/water 50/50): Form HB
Solid state residue ([6]; 50° C., 7 days, DMSO/water 90/10): Amorphous
Solid state residue ([6]; 50° C., 7 days, Dichloromethane): Amorphous
Solid state residue ([6]; 50° C., 7 days, Ethanol): Amorphous
Solid state residue ([6]; 50° C., 7 days, Ethyl acetate): Amorphous
Solid state residue ([6]; 50° C., 7 days, Isopropanol): Amorphous
Solid state residue ([6]; 50° C., 7 days, Isopropyl acetate): Amorphous
Solid state residue ([6]; 50° C., 7 days, MEK): Amorphous
Solid state residue ([6]; 50° C., 7 days, MIBK): Amorphous
Solid state residue ([6]; 50° C., 7 days, MTBE): Amorphous
Solid state residue ([6]; 50° C., 7 days, Methanol): transformed into Form B
Solid state residue ([6]; 50° C., 7 days, NMP): Amorphous
Solid state residue ([6]; 50° C., 7 days, THF): Amorphous
Solid state residue ([6]; 50° C., 7 days, THF/acetone 50/50): Amorphous
Solid state residue ([6]; 50° C., 7 days, THF/methanol 50/50): Amorphous
Solid state residue ([6]; 50° C., 7 days, THF/water 50/50): Form HB
Solid state residue ([6]; 50° C., 7 days, Toluene): Amorphous
Solid state residue ([6]; 50° C., 7 days, Water): Form HB
Solid form after equilibration with solvent ([6]; 50° C., 7 days, many solvents): became amorphous
Solid state residue ([6]; 50° C., 7 days, n-Heptane): mixture HB + B
Form change by XRPD upon granulation [7]: no form change
Chemical and physical stability in bulk [8]: stable in all conditions except at 80 °C without humidity
